Source: patent US9096642B2, “Therapeutic compounds for immunomodulation” (Aurigene Discovery Technologies Limited, priority 2011, dated 2015)

Test system: B16F10 melanoma
Test: B16F10 metastasis model (lung metastasis of B16F10 melanoma)
Type: in vivo, C57/b16J mice
Details: 5 mg/kg subcutaneously once daily; after 14 days of treatment; 0.1×10^6 B16F10 cells i.v.; versus vehicle control
Method: In vivo Efficacy of Compound 1 on Metastasis of B16F10 Melanoma
C57/b16J female mice (Aurigene, Bangalore, India) aged 6 to 8 weeks were used for the experiment. Animals were acclimatized for a week in the experimental room before conducting the experiment.
Effect of Compound 001 in B16F10 Metastasis Model
In the case of metastasis model, 0.1×10^6 B16F10 cells were injected to C57/b16J mice through i.v. Compound 001 dissolved in PBS, pH 7.4 was dosed subcutaneously at 5 mg/kg once daily. Vehicle control group of mice received only saline. Each group consisted of ten animals. Body weight and clinical signs were recorded daily. After 14 days of treatment, lung metastasis was quantitated by counting number of nodules under dissection microscope.

Compound 001: SEQ ID NO: 3 (SNTSEFS)
reduction in metastasis (lung metastasis quantitated by counting number of nodules): 64%
